SMILES strings stand for the structures.

The values that follow come from publication PMC5679629, “Flavin-containing monooxygenase 3 (FMO3) role in busulphan metabolic pathway” (PLoS ONE, 2017).

Series [1] can be described thus: THT kinetics in mice (alone or after PTU pretreatment). In kind it is in vivo, Male C57BL/6N mice. The conditions noted are these: THT-treated mice (8.8mg/kg i.p.) pretreated with PTU 3mg/kg i.p. for 3 days. The procedure:
Standard laboratory chow and water ad libitum was introduced.
THT was also prepared as a 2mM solution in DMSO and the dose given was equimolar to the Bu treatment (i.e. 100μmol/kg or 8.8 mg/kg). […] At the appropriate time points (10min, 30min, 1h, 2h, 4h, 6h and 8h), mice (three mice at each time point) were anesthetized using 2% isoflurane and the blood samples were collected by heart puncture. Mice were euthanized by cervical dislocation. Plasma was separated and stored at -20°C.
A similar experiment was performed in a second group of mice, after 3 days of i.p. injections with the FMO3-inhibitor, Phenylthiourea (PTU, Sigma-Aldrich, Stockholm, Sweden, S1 Fig). PTU (3mg/kg) was dissolved in DMSO and diluted with physiological NaCl solution and then injected into the mice once daily followed by Bu or THT injections on the 4th day.
Briefly, 500 μL of plasma were diluted with 500 μL of water. Fifty microliters of the internal standard (1,5-bis(methanesulfonoxy)pentane; 38.5 μM) were added, followed by the addition of 1 mL of sodium iodide (8M, Merck, Darmstadt, Germany) and 400μL of n-heptane (Merck, Darmstadt, Germany). […] The organic phase was analyzed by GC-MS [18]. THT was quantified as described previously and the method was validated for use with mouse plasma before measuring both Bu and THT [19, 20].

Series [2] is described as follows: Busulphan and THT plasma kinetics in a patient treated concomitantly with voriconazole. In kind it is in vivo, human. The conditions noted are these: Bu 2mg/kg b.i.d. with concomitant voriconazole. The procedure: In order to confirm the contribution of FMO3 to human Bu kinetics, blood samples were collected (routinely) from a patient who underwent stem cell transplantation and was conditioned according to the hospital transplantation protocol i.e. high dose of Bu (2mg/kg b.i.d.) for four days followed with two days of cyclophosphamide (60mg/kg). […] Voriconazole was administered, according to the hospital clinical protocol, for the treatment of an acute fungal infection.
Samples were taken for therapeutic drug monitoring (TDM) at several time points after the first, third and fifth doses. Blood was collected into EDTA vacutainer tubes, plasma was separated by centrifugation at 1200 g and stored at -20°C until analysis of Bu and THT [18].

A short description of series [3]: Busulphan kinetics in mice (alone, after PTU pretreatment, or with high-dose THT). The conditions noted are these: mice injected with Bu and PTU.
Description: Male C57BL/6N mice (6–8 weeks old) were purchased from Charles River (Cologne, Germany). The mice were allowed to acclimatize to the surroundings for 2 weeks with a 12h dark/12h light cycle and randomized for treatment. Standard laboratory chow and water ad libitum was introduced.
To study Bu and THT kinetics, Bu (Sigma-Aldrich, Steinheim, Germany) was administered i.p. (25mg/kg or 100μmol/kg) as a 2mM solution in DMSO (Sigma-Aldrich, Stockholm, Sweden) [21]. THT was also prepared as a 2mM solution in DMSO and the dose given was equimolar to the Bu treatment (i.e. 100μmol/kg or 8.8 mg/kg). Upon injection, samples were diluted with physiological NaCl solution to a final DMSO concentration of 10% in the dosing solution. At the appropriate time points (10min, 30min, 1h, 2h, 4h, 6h and 8h), mice (three mice at each time point) were anesthetized using 2% isoflurane and the blood samples were collected by heart puncture. Mice were euthanized by cervical dislocation. Plasma was separated and stored at -20°C.
PTU (3mg/kg) was dissolved in DMSO and diluted with physiological NaCl solution and then injected into the mice once daily followed by Bu or THT injections on the 4th day. The mice were euthanized and plasma samples prepared as in the previous experiment.
To detect the effect of high THT concentrations on Bu metabolism, a third group of mice was injected with both Bu (100μmol/kg) and a high dose of THT (17.6mg/kg or 200μmol/kg) and samples prepared as described previously. All experiments including negative controls (mice injected with 10% DMSO in NaCl solution) and mice injected with PTU alone were performed in triplicates.
To quantify Bu, samples were extracted according to the method reported previously by Hassan et al. [24]. Briefly, 500 μL of plasma were diluted with 500 μL of water. Fifty microliters of the internal standard (1,5-bis(methanesulfonoxy)pentane; 38.5 μM) were added, followed by the addition of 1 mL of sodium iodide (8M, Merck, Darmstadt, Germany) and 400μL of n-heptane (Merck, Darmstadt, Germany). The tubes were placed under magnetic stirring in a water bath (70°C) for 45 min. During the reaction, busulphan and 1,5-bis(methanesulfonoxy)pentane were converted to 1,4-diiodobutane and 1,5-diiodopentane respectively and subsequently extracted with n-heptane [25]. The conversion of busulphan and 1,5-bis(methanesulfonoxy)pentane to 1,4-diiodobutane and 1,5-diiodopentane was over 90% [24]. The organic phase was analyzed by GC-MS [18]. THT was quantified as described previously and the method was validated for use with mouse plasma before measuring both Bu and THT [19, 20].
Kinetic parameters from in vivo studies were estimated using WinNonLin software (standard edition, version 2.0), while Microsoft Excel and SigmaPlot software (version 12.5, Systat software, Inc.) were utilized for in vitro kinetics.
The target of another series is T1, CYP3A4 (Homo sapiens, UniProt P08684).
T1 construct: purchased BD Biosciences; host or cells: baculovirus infected insect cells
The experiment in a line: THT disappearance with recombinant cDNA-expressed enzyme microsomes. In kind it is in vitro ADME. Particulars: 25μM THT, 35pmol CYP/mL. The procedure: To identify the enzymes involved in Bu metabolism, 11 microsomal batches (BD Biosciences, Stockholm, Sweden), each containing a separate cDNA-expressed enzyme, were incubated with 25μM THT. The microsomes contained FMO3, CYP1A1, CYP1A2, CYP2B6, CYP2C8, CYP2C9, CYP2C19, CYP2D6, CYP2E1, CYP3A4 or CYP4A11. Time curves (0, 5, 15, 30 and 60min) were performed at a concentration of 0.35mg protein /mL for FMO3 and 35pmol CYP/mL for the CYP enzymes. The recombinant enzymes were produced from human cDNA expressing each of them using baculovirus expression system. Baculovirus infected insect cells were used to prepare these microsomes.
(§1) Incubations were performed in triplicate and negative controls (excluding NADPH, microsomes, THT or by terminating the incubations before the addition of NADPH) were run in parallel.
(§2) To measure THT and the secondary metabolite, sulfolane, the reactions were terminated by adding dichloromethane. Samples (180μL) were added to 10μM nicotine (20μL, Merck, Hoherbrunn, Germany), used as an internal standard, before extraction. The matrix was extracted by liquid-liquid extraction with dichloromethane (equal volumes, 200μL) after 30 sec of high speed vortexing. After extraction and centrifugation at 16000 g for 10 min, the organic phase was transferred into GC-MS tubes. […] Samples (180μL) were added to 10 μM of 3-methylsulfolane (20μL, TCI, Tokyo, Japan), used as an internal standard. The matrix was lyophilized (< 1 mbar at 40°C under N2 stream) to dryness, the residue was dissolved in 10 μL water and 200 μL of ethyl acetate was added for extraction. Samples were vortexed for 30 sec at high speed and centrifuged at 16000 g for 10 min. The organic phase was transferred to GC-MS tubes.
(§3) Concentrations of THT and its metabolites were measured using GC-MS [18] after validation for use with microsomal incubations according to the international guidelines.

Series [4] concerns pooled human liver microsomes (HLM). The experiment in a line: THT disappearance on incubation with pooled human liver microsomes, with heat-inactivation of FMO3 or carbon monoxide inactivation of CYPs. In kind it is in vitro ADME. The procedure:
THT (Sigma-Aldrich, Stockholm, Sweden) was received as a liquid solution and stock solutions were prepared daily and diluted in 50mM potassium phosphate buffer pH 7.4.
Linearity of the reactions with time, enzyme and THT concentrations was determined before measuring apparent enzyme kinetic constants; pooled human liver microsomes (HLM) (Cypex, Dundee, UK) were incubated at different enzyme concentrations with a range of THT concentrations (10–500μM).
Time curves were performed by incubating microsomes in 50mM potassium phosphate buffer (pH 7.4) in a total volume of 200μL. The reaction was started by the addition of NADPH (Sigma-Aldrich, St. Louis, USA) to a final concentration of 1mM and terminated by adding one volume of ice cold dicholormethane (Fluka, Seeze, Germany).
The relative contribution of CYPs and FMO3 in the metabolism of THT was studied by heat-inactivation of FMO3 in some incubations and, in other incubations, CYP enzymes in HLM were inactivated by carbon monoxide (AGA Gas, Enköping, Sweden) bubbling.
as §1
as §2, with “The matrix was lyophilized (< 1 mbar at 40°C under N2 stream) to dryness, the residue was dissolved in 10 μL water and 200 μL of ethyl acetate was added for extraction. Samples were vortexed for 30 sec at high speed and centrifuged at 16000 g for 10 min. The organic phase was transferred to GC-MS tubes.” left out
as §3

T1 sequence (P08684 whole entry): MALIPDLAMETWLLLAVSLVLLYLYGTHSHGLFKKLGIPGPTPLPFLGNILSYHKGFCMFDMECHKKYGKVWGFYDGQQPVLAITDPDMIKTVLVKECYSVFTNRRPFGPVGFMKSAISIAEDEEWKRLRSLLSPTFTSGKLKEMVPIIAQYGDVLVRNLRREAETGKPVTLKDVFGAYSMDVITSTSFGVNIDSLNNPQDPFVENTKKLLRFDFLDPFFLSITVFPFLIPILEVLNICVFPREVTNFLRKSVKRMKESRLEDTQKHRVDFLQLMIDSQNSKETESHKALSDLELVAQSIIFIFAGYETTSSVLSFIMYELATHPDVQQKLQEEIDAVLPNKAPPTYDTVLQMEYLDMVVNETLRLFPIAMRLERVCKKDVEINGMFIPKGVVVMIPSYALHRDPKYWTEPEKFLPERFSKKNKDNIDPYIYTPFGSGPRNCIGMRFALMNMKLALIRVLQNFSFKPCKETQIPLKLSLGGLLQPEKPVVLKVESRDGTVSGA

As to `C1CCSC1` [THT, tetrahydrothiophene], in series [1], the “THT concentrations versus THT only” value is reported as “significantly (P<0.05, t-test) higher”. Besides, in series [2], the “THT concentrations versus Bu alone” value is reported as “higher concentrations than with Bu alone” and the “time at which THT was detected after the first dose of Bu” value is given as 1 h. Also, in series [3], the “THT concentrations versus Bu alone” value was “significantly (P<0.05, t-test) increased”. Also, at CYP3A4, the v0 was 3.66 nmol/min/mL and the v0/CYP amounted to 0.11 nmol/min/pmol CYP. In series [4], the “THT disappearance on incubation with HLM” value was “rapid THT disappearance” and the “reduction of THT disappearance by CYP inhibition by carbon monoxide” value worked out at 9%. In series [4] (within 60 min), the “reduction of THT disappearance by inactivation of FMO3 (heat treatment)” value was 44%.
